Measured values reported in patent US20130204033A1, “ANTIPROLIFERATIVE COMPOUNDS, CONJUGATES THEREOF, METHODS THEREFOR, AND USES THEREOF” (Medarex, Inc., priority 2009, published 2013).
Where two headings read alike, the source gives them in different places.

What was measured:
Assay type in all cases: cell-based, human
MDA-MB-231 = experiment: 3H thymidine proliferation assay, MDA-MB-231; conditions: Homo sapiens, MDA-MB-231; 3H thymidine method, 72 h incubation; read-out: EC50, MDA-MB-231
Method: (§1) This example generally describes the procedures used to assay the antiproliferative activity of compounds of this invention or their conjugates. Human tumor cell lines were obtained from the American Type Culture Collection (ATCC), P.O. Box 1549, Manassas, Va. 20108, USA, and cultured according to instruction from the ATCC. Cells were seeded at 1.0×10^3 or 1.0×10^4 cells/well in 96-well plates for 3 h for ATP assays or ^3H thymidine assays, respectively. 1:3 serial dilutions of free (unconjugated) compounds or their conjugates were added to the wells. Plates were allowed to incubate for 24 to 72 h. The ^3H thymidine plates were pulsed with 1.0 μCi of ^3H-thymidine per well for the last 24 hours of the total incubation period, harvested, and read on a Top Count Scintillation Counter (Packard Instruments, Meriden, Conn.). ATP levels in the ATP plates were measured using the […]-GLO® Luminescent Cell Viability kit following the manufacturer's manual and read on a GLOMAX® 20/20 luminometer (both from Promega, Madison, Wis., USA). The EC50 values—the concentration at which an agent inhibits or reduces cell proliferation by 50% —were determined using PRISM™ software, version 4.0 (GraphPad Software, La Jolla, Calif., USA).
(§2) Using the ^3H thymidine or the ATP luminescence assay, or both, the activities of compounds of this invention were assayed against the following cancer cell lines: HCT-15 (colorectal cancer, multi-drug resistant (MDR)); Hep3B (liver cancer); LNCaP (prostate cancer, androgen receptor positive (AR^+)); MDA-MB-231 (breast cancer, estrogen receptor, progesterone receptor, and Her2 negative (triple negative)); A2058 (melanoma); U-87 MG (glioblastoma); NCI-H460 (NSCLC); A549 (NSCLC); HPAC (pancreatic cancer, primary); PC3 (prostate cancer, AR); BT474 (breast cancer, Her2 highly positive (Her2hi)); SKOV3 (ovarian cancer, Her2hi); 786-O (renal cancer); UO-31 (renal cancer, MDR); NCI-H740 (SCLC); DMS53 (SCLC); SK-BR3 (breast cancer, Her2hi); ZR-75 (breast cancer, estrogen receptor positive); OVCAR3 (ovarian cancer); HL-60 (APL); OVCAR8/Adr (ovarian cancer, MDR); CEM-Cl (ALL); Nomo-1 (AML); RPMI-8226 (MM)); Raji (lymphoma); SW-480 (colorectal cancer, metastatic); SW-620 (colorectal cancer); and H226 (lung cancer). (Not all compounds were assayed against all cell lines.)
(§3) Table 2 provides the data for proliferation assays using the ^3H thymidine method, with an incubation period of 72 h.

RPMI-8226 = experiment: 3H thymidine proliferation assay, RPMI-8226; conditions: 3H thymidine method, 72 h incubation, read-out: EC50, RPMI-8226
Method: as §1, §2, §3

U-87 MG = experiment: 3H thymidine proliferation assay, U-87 MG; conditions: 3H thymidine method, 72 h incubation, read-out: EC50, U-87 MG
Method: as §1, §2, §3

Nomo-1 [1] = experiment: ATP luminescence proliferation assay, Nomo-1; conditions: ATP luminescence, Nomo-1, 72 h incubation, read-out: EC50 Nomo-1 (72 h)
Method: as §1, §2
(§4) Table 3 provides the data for the ATP luminescence proliferation assays, with an incubation period of 48, 72, or 96 h, as noted.

CEM-C1 = experiment: 3H thymidine proliferation assay, CEM-C1; conditions: 3H thymidine method, 72 h incubation, read-out: EC50, CEM-C1
Method: as §1, §2, §3

DMS53 = experiment: ATP luminescence proliferation assay, DMS53; conditions: ATP luminescence, DMS53, 72 h incubation, read-out: EC50 DMS53 (72 h)
Method: as §1, §2, §4

SW-480 = experiment: ATP luminescence proliferation assay, SW-480; conditions: ATP luminescence, SW480, 96 h incubation, read-out: EC50 SW480 (96 h)
Method: as §1, §2, §4

SKOV3 = experiment: ATP luminescence proliferation assay, SKOV3; conditions: ATP luminescence
Method: as §1, §2, §4

Hep3B = experiment: ATP luminescence proliferation assay, Hep3B; conditions: ATP luminescence, 48 h incubation, read-out: EC50 Hep3B (48 h)
Method: as §1, §2, §4

HPAC = experiment: ATP luminescence proliferation assay, HPAC; conditions: ATP luminescence, 72 h incubation, read-out: EC50 HPAC (72 h)
Method: as §1, §2, §4

UO-31 = experiment: ATP luminescence proliferation assay, UO-31; conditions: ATP luminescence, UO-31, 48 h incubation, read-out: EC50 UO-31 (48 h)
Method: as §1, §2, §4

HCT-15 = experiment: 3H thymidine proliferation assay, HCT-15; conditions: 3H thymidine method, 72 h incubation, read-out: EC50, HCT-15
Method: as §1, §2, §3

SK-BR3 = experiment: ATP luminescence proliferation assay, SK-BR3; conditions: ATP luminescence
Method: as §1, §2, §4

ZR-75 = experiment: 3H thymidine proliferation assay, ZR-75; conditions: 3H thymidine method, 72 h incubation, read-out: EC50, ZR-75
Method: as §1, §2, §3

786-O = experiment: ATP luminescence proliferation assay, 786-O; conditions: ATP luminescence, 786-O
Method in brief: (§5)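 Cells seeded at 1.0×10^3 cells/well for 3 h, then exposed to 1:3 serial dilutions of free compounds or conjugates for 48, 72 or 96 h, as noted. ATP measured by luminescent cell viability kit; EC50 taken as concentration reducing proliferation by 50%.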

LNCaP = experiment: 3H thymidine proliferation assay, LNCaP; conditions: 3H thymidine method, 72 h incubation, read-out: EC50, LNCaP
Method: as §1, §2, §3

HL-60 = experiment: ATP luminescence proliferation assay, HL-60; conditions: ATP luminescence, HL-60, 72 h incubation, read-out: EC50 HL-60 (72 h)
Method in brief: as §5

Nomo-1 [2] = experiment: 3H thymidine proliferation assay, Nomo-1; conditions: 3H thymidine method, 72 h incubation, read-out: EC50, Nomo-1
Method: as §1, §2, §3

## Nc1ccc(C(=O)Nc2ccc3[nH]c(C(=O)N4C[C@@H](CCl)c5c4cc(O)c4ccccc54)cc3c2)cc1 [CBI, reference compound]
MDA-MB-231
  EC50: 0.019 nM
RPMI-8226; Homo sapiens, RPMI-8226
  EC50: 0.12 nM
U-87 MG; Homo sapiens, U-87 MG
  EC50: 0.14 nM
Nomo-1 [1]; Homo sapiens
  EC50: 0.37 nM
CEM-C1; Homo sapiens, CEM/C1
  EC50: 0.11 nM
DMS53; Homo sapiens, DMS-53
  EC50: 3.8 nM
SW-480; Homo sapiens
  EC50: 0.92 nM
SKOV3; Homo sapiens, SK-OV-3, SKOV3, 48 h incubation, read-out: EC50 SKOV3 (48 h)
  EC50: 3 nM
Hep3B; Homo sapiens
  EC50: 2.6 nM
HPAC; Homo sapiens
  EC50: 6 nM
UO-31; Homo sapiens
  EC50: 4.2 nM
HCT-15; Homo sapiens, HCT-15
  EC50: 0.04 nM
SK-BR3; Homo sapiens, SK-BR-3, SK-BR3, 72 h incubation, read-out: EC50 SK-BR3 (72 h)
  EC50: 3.1 nM
ZR-75; Homo sapiens, ZR75
  EC50: 1.5 nM
786-O; Homo sapiens, 786-0, 48 h incubation, read-out: EC50 786-O (48 h)
  EC50: 1.6 nM
LNCaP; Homo sapiens, LNCaP
  EC50: 0.051 nM
HL-60; Homo sapiens
  EC50: 0.76 nM
Nomo-1 [2]; Homo sapiens, NOMO-1
  EC50: 0.016 nM

## CCC[C@H](NC(=O)[C@H](Cc1ccccc1)NC(=O)c1csc([C@@H](C[C@H](C(C)C)N(C)C(=O)[C@@H](NC(=O)[C@H]2CCCCN2C)[C@@H](C)CC)OC)n1)C(=O)OC [Compound 19]
RPMI-8226
  EC50: 23 nM
U-87 MG
  EC50: > 100 nM
Nomo-1 [1]
  EC50: 5.2 nM
CEM-C1
  EC50: 22 nM
DMS53
  EC50: 87 nM
SW-480
  EC50: 52 nM
SKOV3; SKOV3, 72 h incubation, read-out: EC50 SKOV3 (72 h)
  EC50: 15 nM
Hep3B
  EC50: 18 nM
HPAC
  EC50: 0.33 nM
UO-31
  EC50: > 100 nM
HCT-15
  EC50: 1070 nM
SK-BR3; SK-BR3, 48 h incubation, read-out: EC50 SK-BR3 (48 h)
  EC50: 3.9 nM
ZR-75
  EC50: 34 nM
786-O; 72 h incubation, read-out: EC50 786-O (72 h)
  EC50: 40 nM
LNCaP
  EC50: > 100 nM
HL-60
  EC50: 7.7 nM
Nomo-1 [2]
  EC50: 1.3 nM
